Measured values: patent US9796672B2, “Isoindoline compositions and methods for treating neurodegenerative disease” (Cognition Therapeutics, Inc., priority 2014, dated 2017)

Tested on: not listed separately
Experiment: Mouse liver microsome (MLM) stability
Assay type: in vitro ADME
Details: mouse, microsomes
Procedure: A first pharmacokinetic study was performed in microsomes of mice mouse liver microsomes, MLM) by a commercial contract research organization. The studies were performed according to Obach, R. S et al. (1997) J. Pharmacol. Exp. Ther., 283: 46-58, which is incorporated herein by reference.

SMILES	Mouse liver microsomes, MLM t½ [min]
C[C@H](CCc1ccc(O)c(OC(C)(C)C)c1)N1Cc2c(F)ccc(F)c2C1 [60A]	5
C[C@H](CCc1ccc(Cl)c(Cl)c1)N1Cc2cccc(F)c2C1 [compound 9]	12
COc1cc2c(cc1OC)CN([C@H](C)CCc1ccc(Cl)c(Cl)c1)C2 [compound 11]	61
Cc1ccc2c(c1)CN([C@H](C)CCc1ccc(Cl)c(Cl)c1)C2 [compound 13]	3
C[C@H](CCc1ccc(F)cc1)N1Cc2ccc(F)cc2C1 [compound 22]	7
C[C@H](CCc1ccc(F)cc1)N1Cc2cc3c(cc2C1)OCO3 [compound 23]	5
CC(C)Oc1cc(CC[C@@H](C)N2Cc3cccc(F)c3C2)ccc1O [compound 26]	4
CC(C)Oc1ccc(CC[C@@H](C)N2Cc3cc4c(cc3C2)OCO4)cc1OC(C)C [compound 40]	6
C[C@H](CCc1ccc(OC(=O)N(C)C)c(OC(F)(F)F)c1)N1Cc2ccc(F)cc2C1 [compound 43]	5

The next lines start with the values.

Mouse liver microsomes, MLM t½ [min]	SMILES
7	C[C@H](CCc1ccc(F)cc1)N1Cc2cccc(F)c2C1 [compound 21]
4	CC(C)Oc1cc(CCC(C)(C)N2Cc3cccc(F)c3C2)ccc1O [compound 28]
25	C[C@H](CCc1ccc(Cl)c(Cl)c1)N1Cc2ccc3ccccc3c2C1 [compound 19]
6	CC(C)Oc1cc(CCC(C)(C)N2Cc3cc4c(cc3C2)OCO4)ccc1O [compound 29]
11	COc1cc(CC[C@@H](C)N2Cc3ccc(Cl)cc3C2)ccc1O [compound 1]
5	CC(C)Oc1cc(CC[C@@H](C)N2Cc3ccc(F)cc3C2)ccc1O [compound 37]
4	CC(C)Oc1cc(CC[C@@H](C)N2Cc3cc4c(cc3C2)OCO4)ccc1O [compound 25]
5	C[C@H](CCc1ccc(O)c(OC(F)(F)F)c1)N1Cc2cc3c(cc2C1)OCO3 [compound 24]
8	C[C@H](CCc1ccc(Cl)c(Cl)c1)N1Cc2cc3c(cc2C1)OCO3 [compound 10]
43	COc1cc2c(cc1OC)CN([C@@H](C)CCc1ccc(Cl)c(Cl)c1)C2 [compound 20]

Tested on: neuronal cultures
Experiment: Functional neuronal phenotype in neuronal cultures
Assay type: cell-based
Design: key: Antagonist: antagonists (block Abeta signaling); Agonist: agonists (block Abeta signaling with U-shaped dose-response curve and toxicity at high doses); Inactive: inactive (no effect in neuronal cultures)
Details: not given

SMILES	neuronal phenotype
C[C@H](CCc1ccc(O)c(OC(C)(C)C)c1)N1Cc2c(F)ccc(F)c2C1 [60A]	Antagonist
C[C@H](CCc1ccc(Cl)c(Cl)c1)N1Cc2cccc(F)c2C1 [compound 9]	Antagonist
C[C@H](CCc1ccc(Cl)c(Cl)c1)N1Cc2cc3c(cc2C1)OCO3 [compound 10]	Antagonist
COc1cc2c(cc1OC)CN([C@H](C)CCc1ccc(Cl)c(Cl)c1)C2 [compound 11]	Antagonist
Cc1ccc2c(c1)CN([C@H](C)CCc1ccc(Cl)c(Cl)c1)C2 [compound 13]	Antagonist
C[C@H](CCc1ccc(Cl)c(Cl)c1)N1Cc2ccc3ccccc3c2C1 [compound 19]	Weak
C[C@H](CCc1ccc(F)cc1)N1Cc2cccc(F)c2C1 [compound 21]	Inactive
C[C@H](CCc1ccc(F)cc1)N1Cc2ccc(F)cc2C1 [compound 22]	Antagonist
C[C@H](CCc1ccc(F)cc1)N1Cc2cc3c(cc2C1)OCO3 [compound 23]	Antagonist
C[C@H](CCc1ccc(O)c(OC(F)(F)F)c1)N1Cc2cc3c(cc2C1)OCO3 [compound 24]	Antagonist
CC(C)Oc1cc(CC[C@@H](C)N2Cc3cc4c(cc3C2)OCO4)ccc1O [compound 25]	Inactive/
CC(C)Oc1cc(CC[C@@H](C)N2Cc3cccc(F)c3C2)ccc1O [compound 26]	Inactive
CC(C)Oc1cc(CCC(C)(C)N2Cc3cccc(F)c3C2)ccc1O [compound 28]	Antagonist
CC(C)Oc1cc(CCC(C)(C)N2Cc3cc4c(cc3C2)OCO4)ccc1O [compound 29]	Inactive/

Tested on: Abeta oligomer-induced membrane trafficking deficits in primary hippocampal neurons
Experiment: Membrane trafficking/exocytosis (MTT) assay
Details: read-out: Membrane Trafficking EC50; compound dosed prior to Abeta oligomer addition
Procedure: Primary hippocampal neurons from E18 Sprague-Dawley rat embryos were plated at optimized concentrations in 384 well plates in NB media (Invitrogen). Neurons were maintained in cultures for 3 weeks, with twice weekly feeding of NB media with N2 supplement (Invitrogen).
MTT reagent (3-(4,5-dimethylthizaol-2yl)-2,5diphenyl tetrazolium bromide) (Roche Molecular Biochemicals) was reconstituted in phosphate buffered saline to 5 mg/mL. 10 μL of MTT labeling reagent is added to each well and incubated at 37° C. for 1 h, then imaged. Exocytosis was assessed by automated microscopy and image processing to quantify the amount of endocytosed and exocytosed formazan.
Each assay plate was formatted so that compounds are tested with and without Abeta oligomer on each plate. […] Reduced formazan was first visible in intracellular vesicles. […] The dye precipitated in the aqueous environment of the culture and formed needle-shaped crystals on the surface of the neuron.

SMILES	EC50 [nM]
C[C@H](CCc1ccc(O)c(OC(C)(C)C)c1)N1Cc2c(F)ccc(F)c2C1 [60A]	> 20000
C[C@H](CCc1ccc(Cl)c(Cl)c1)N1Cc2cccc(F)c2C1 [compound 9]	220
C[C@H](CCc1ccc(Cl)c(Cl)c1)N1Cc2cc3c(cc2C1)OCO3 [compound 10]	500
COc1cc2c(cc1OC)CN([C@H](C)CCc1ccc(Cl)c(Cl)c1)C2 [compound 11]	700
Cc1ccc2c(c1)CN([C@H](C)CCc1ccc(Cl)c(Cl)c1)C2 [compound 13]	300
C[C@H](CCc1ccc(Cl)c(Cl)c1)N1Cc2ccc3ccccc3c2C1 [compound 19]	270
COc1cc2c(cc1OC)CN([C@@H](C)CCc1ccc(Cl)c(Cl)c1)C2 [compound 20]	67 to 600
C[C@H](CCc1ccc(F)cc1)N1Cc2cccc(F)c2C1 [compound 21]	> 20000
C[C@H](CCc1ccc(F)cc1)N1Cc2ccc(F)cc2C1 [compound 22]	< 250
C[C@H](CCc1ccc(F)cc1)N1Cc2cc3c(cc2C1)OCO3 [compound 23]	< 250
C[C@H](CCc1ccc(O)c(OC(F)(F)F)c1)N1Cc2cc3c(cc2C1)OCO3 [compound 24]	500
CC(C)Oc1cc(CC[C@@H](C)N2Cc3cc4c(cc3C2)OCO4)ccc1O [compound 25]	> 20000
CC(C)Oc1cc(CC[C@@H](C)N2Cc3cccc(F)c3C2)ccc1O [compound 26]	> 20000
CC(C)Oc1cc(CCC(C)(C)N2Cc3cccc(F)c3C2)ccc1O [compound 28]	70 to 80
CC(C)Oc1cc(CCC(C)(C)N2Cc3cc4c(cc3C2)OCO4)ccc1O [compound 29]	> 20000

Target: Sigma-1 receptor
Experiment: Sigma-1 receptor competitive radioligand binding assay
Details: read-out: Sigma-1 Receptor Affinity, Ki

SMILES	Ki [nM]
C[C@H](CCc1ccc(O)c(OC(C)(C)C)c1)N1Cc2c(F)ccc(F)c2C1 [60A]	410
C[C@H](CCc1ccc(Cl)c(Cl)c1)N1Cc2cccc(F)c2C1 [compound 9]	17
COc1cc2c(cc1OC)CN([C@H](C)CCc1ccc(Cl)c(Cl)c1)C2 [compound 11]	14
C[C@H](CCc1ccc(F)cc1)N1Cc2ccc(F)cc2C1 [compound 22]	44
C[C@H](CCc1ccc(F)cc1)N1Cc2cc3c(cc2C1)OCO3 [compound 23]	16
CC(C)Oc1cc(CC[C@@H](C)N2Cc3cccc(F)c3C2)ccc1O [compound 26]	7.9
CC(C)Oc1ccc(CC[C@@H](C)N2Cc3cc4c(cc3C2)OCO4)cc1OC(C)C [compound 40]	7.8
C[C@H](CCc1ccc(OC(=O)N(C)C)c(OC(F)(F)F)c1)N1Cc2ccc(F)cc2C1 [compound 43]	380

The next lines start with the values.

Ki [nM]	SMILES
330	C[C@H](CCc1ccc(F)cc1)N1Cc2cccc(F)c2C1 [compound 21]
120	CC(C)Oc1cc(CCC(C)(C)N2Cc3cccc(F)c3C2)ccc1O [compound 28]
69	C[C@H](CCc1ccc(Cl)c(Cl)c1)N1Cc2ccc3ccccc3c2C1 [compound 19]
47	CC(C)Oc1cc(CCC(C)(C)N2Cc3cc4c(cc3C2)OCO4)ccc1O [compound 29]
31	COc1cc(CC[C@@H](C)N2Cc3ccc(Cl)cc3C2)ccc1O [compound 1]
9.1	CC(C)Oc1cc(CC[C@@H](C)N2Cc3ccc(F)cc3C2)ccc1O [compound 37]
5.7	CC(C)Oc1cc(CC[C@@H](C)N2Cc3cc4c(cc3C2)OCO4)ccc1O [compound 25]
4.9	C[C@H](CCc1ccc(O)c(OC(F)(F)F)c1)N1Cc2cc3c(cc2C1)OCO3 [compound 24]
1.4	C[C@H](CCc1ccc(Cl)c(Cl)c1)N1Cc2cc3c(cc2C1)OCO3 [compound 10]
0.57	COc1cc2c(cc1OC)CN([C@@H](C)CCc1ccc(Cl)c(Cl)c1)C2 [compound 20]

Target: Sigma-2 receptor
Experiment: Sigma-2 receptor competitive radioligand binding assay
Design: species or system rat
Details: read-out: Sigma-2 Receptor Affinity, Ki

SMILES	Ki [nM]
C[C@H](CCc1ccc(O)c(OC(C)(C)C)c1)N1Cc2c(F)ccc(F)c2C1 [60A]	1600
C[C@H](CCc1ccc(Cl)c(Cl)c1)N1Cc2cccc(F)c2C1 [compound 9]	3.6
COc1cc2c(cc1OC)CN([C@H](C)CCc1ccc(Cl)c(Cl)c1)C2 [compound 11]	0.44
C[C@H](CCc1ccc(F)cc1)N1Cc2ccc(F)cc2C1 [compound 22]	23
C[C@H](CCc1ccc(F)cc1)N1Cc2cc3c(cc2C1)OCO3 [compound 23]	13
CC(C)Oc1cc(CC[C@@H](C)N2Cc3cccc(F)c3C2)ccc1O [compound 26]	41
CC(C)Oc1ccc(CC[C@@H](C)N2Cc3cc4c(cc3C2)OCO4)cc1OC(C)C [compound 40]	8.9
C[C@H](CCc1ccc(OC(=O)N(C)C)c(OC(F)(F)F)c1)N1Cc2ccc(F)cc2C1 [compound 43]	140

Other lines, results leading:

Ki [nM]	SMILES
12	C[C@H](CCc1ccc(F)cc1)N1Cc2cccc(F)c2C1 [compound 21]
11	CC(C)Oc1cc(CCC(C)(C)N2Cc3cccc(F)c3C2)ccc1O [compound 28]
1.8	C[C@H](CCc1ccc(Cl)c(Cl)c1)N1Cc2ccc3ccccc3c2C1 [compound 19]
13	CC(C)Oc1cc(CCC(C)(C)N2Cc3cc4c(cc3C2)OCO4)ccc1O [compound 29]
25	COc1cc(CC[C@@H](C)N2Cc3ccc(Cl)cc3C2)ccc1O [compound 1]
140	CC(C)Oc1cc(CC[C@@H](C)N2Cc3ccc(F)cc3C2)ccc1O [compound 37]
110	CC(C)Oc1cc(CC[C@@H](C)N2Cc3cc4c(cc3C2)OCO4)ccc1O [compound 25]
52	C[C@H](CCc1ccc(O)c(OC(F)(F)F)c1)N1Cc2cc3c(cc2C1)OCO3 [compound 24]
5	C[C@H](CCc1ccc(Cl)c(Cl)c1)N1Cc2cc3c(cc2C1)OCO3 [compound 10]
0.67	COc1cc2c(cc1OC)CN([C@@H](C)CCc1ccc(Cl)c(Cl)c1)C2 [compound 20]

Target: potassium channel hERG (Homo sapiens (Human), UniProt Q12809)
Sequence (Q12809 whole entry): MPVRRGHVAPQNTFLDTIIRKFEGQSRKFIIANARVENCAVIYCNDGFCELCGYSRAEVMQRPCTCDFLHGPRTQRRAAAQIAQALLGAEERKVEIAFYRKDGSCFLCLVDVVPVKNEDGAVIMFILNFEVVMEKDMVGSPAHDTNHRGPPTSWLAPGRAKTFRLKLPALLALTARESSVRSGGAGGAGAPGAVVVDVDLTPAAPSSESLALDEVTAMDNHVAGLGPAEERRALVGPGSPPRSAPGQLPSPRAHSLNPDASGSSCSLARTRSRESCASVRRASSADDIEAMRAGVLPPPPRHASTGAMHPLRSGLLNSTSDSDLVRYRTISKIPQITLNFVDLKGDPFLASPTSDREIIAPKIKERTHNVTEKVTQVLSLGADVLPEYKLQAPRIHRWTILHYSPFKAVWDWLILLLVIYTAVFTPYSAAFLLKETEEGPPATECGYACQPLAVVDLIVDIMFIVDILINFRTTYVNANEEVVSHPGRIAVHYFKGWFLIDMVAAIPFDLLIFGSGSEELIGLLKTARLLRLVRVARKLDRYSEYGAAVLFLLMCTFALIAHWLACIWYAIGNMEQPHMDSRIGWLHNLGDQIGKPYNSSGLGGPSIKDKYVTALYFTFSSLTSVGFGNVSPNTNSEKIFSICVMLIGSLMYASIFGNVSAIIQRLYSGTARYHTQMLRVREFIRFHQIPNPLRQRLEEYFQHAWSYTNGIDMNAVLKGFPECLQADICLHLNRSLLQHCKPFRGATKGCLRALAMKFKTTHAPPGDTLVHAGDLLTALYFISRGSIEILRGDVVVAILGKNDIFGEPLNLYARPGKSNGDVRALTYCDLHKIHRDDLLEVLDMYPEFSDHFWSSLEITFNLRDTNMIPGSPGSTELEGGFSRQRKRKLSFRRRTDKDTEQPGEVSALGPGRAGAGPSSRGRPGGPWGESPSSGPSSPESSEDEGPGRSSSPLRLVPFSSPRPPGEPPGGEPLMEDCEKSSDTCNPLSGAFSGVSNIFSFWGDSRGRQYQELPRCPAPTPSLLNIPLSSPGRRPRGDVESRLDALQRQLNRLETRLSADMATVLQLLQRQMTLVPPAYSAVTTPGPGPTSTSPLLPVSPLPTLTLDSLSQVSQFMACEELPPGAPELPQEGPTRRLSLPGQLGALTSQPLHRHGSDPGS
Experiment: In vitro toxicity, hERG inhibition
Assay type: biochemical
Details: not given

SMILES	IC50 [nM]
C[C@H](CCc1ccc(O)c(OC(C)(C)C)c1)N1Cc2c(F)ccc(F)c2C1 [60A]	100000
COc1cc(CC[C@@H](C)N2Cc3ccc(Cl)cc3C2)ccc1O [compound 1]	430
C[C@H](CCc1ccc(Cl)c(Cl)c1)N1Cc2cccc(F)c2C1 [compound 9]	6700
C[C@H](CCc1ccc(Cl)c(Cl)c1)N1Cc2cc3c(cc2C1)OCO3 [compound 10]	41000
COc1cc2c(cc1OC)CN([C@H](C)CCc1ccc(Cl)c(Cl)c1)C2 [compound 11]	290
Cc1ccc2c(c1)CN([C@H](C)CCc1ccc(Cl)c(Cl)c1)C2 [compound 13]	250
C[C@H](CCc1ccc(Cl)c(Cl)c1)N1Cc2ccc3ccccc3c2C1 [compound 19]	98000
COc1cc2c(cc1OC)CN([C@@H](C)CCc1ccc(Cl)c(Cl)c1)C2 [compound 20]	660
C[C@H](CCc1ccc(F)cc1)N1Cc2cccc(F)c2C1 [compound 21]	15000
C[C@H](CCc1ccc(F)cc1)N1Cc2ccc(F)cc2C1 [compound 22]	350
C[C@H](CCc1ccc(F)cc1)N1Cc2cc3c(cc2C1)OCO3 [compound 23]	370
C[C@H](CCc1ccc(O)c(OC(F)(F)F)c1)N1Cc2cc3c(cc2C1)OCO3 [compound 24]	860
CC(C)Oc1cc(CC[C@@H](C)N2Cc3cc4c(cc3C2)OCO4)ccc1O [compound 25]	3200
CC(C)Oc1cc(CC[C@@H](C)N2Cc3cccc(F)c3C2)ccc1O [compound 26]	3700
CC(C)Oc1cc(CCC(C)(C)N2Cc3cccc(F)c3C2)ccc1O [compound 28]	9600
CC(C)Oc1cc(CCC(C)(C)N2Cc3cc4c(cc3C2)OCO4)ccc1O [compound 29]	540
CC(C)Oc1cc(CC[C@@H](C)N2Cc3ccc(F)cc3C2)ccc1O [compound 37]	480
CC(C)Oc1ccc(CC[C@@H](C)N2Cc3cc4c(cc3C2)OCO4)cc1OC(C)C [compound 40]	350
C[C@H](CCc1ccc(OC(=O)N(C)C)c(OC(F)(F)F)c1)N1Cc2ccc(F)cc2C1 [compound 43]	670
